# How the values were obtained:
# Format in all cases: cell-based
# [1] = tested on: HUMAN RSV-A (“LONG” STRAIN); assay: RSV-A assay (CPE, ATPlite) in Hep-2 cells; settings: human respiratory syncytial virus, 120 h, MOI 0.1, 5-day incubation
# How it was run: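 Hep-2 cells (8,000/well) given 2-fold serial compound dilutions in duplicate, then infected with RSV-A Long strain at MOI 0.1. After 5 days, virus-induced cytopathic effect quantified as cellular ATP by ATPlite luminescence, against virus-only and uninfected controls; EC50 reported in ranges.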
# hMPV A2 TN/94-49 [2] = assay: HMPV antiviral assay Method 1 (LLC-MK2 cells, ATP-Lite); settings: hMPV A2 TN/94-49, LLC-MK2 cells
# How it was run: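 LLC-MK2 cells infected in suspension with hMPV A2 TN/94-49 at MOI 0.005, 5,000 cells/well, in serum-free OptiMEM with 2 μg/mL TPCK-trypsin (final) and CaCl2; compounds in duplicate, 10 points, 2 μM top, 2.5-fold dilutions. After 7 days at 37 °C, cell health by ATP-Lite luminescence; EC50 by four-parameter fit.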
# hMPV A2 TN/94-49 [3] = assay: HMPV antiviral assay Method 2 (LLC-MK2 cells with CP-100-356, ATP-Lite); settings: hMPV A2 TN/94-49, LLC-MK2 cells, 4 μM CP-100-356, Method 2
# How it was run: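 LLC-MK2 cells infected in suspension with hMPV A2 TN/94-49 at MOI 0.16, in serum-free OptiMEM with final 2 μg/mL TPCK-trypsin and 2 μM CP-100-356 (P-gp inhibitor). Compounds tested in duplicate, top 200 nM, 2.5-fold, 10 points; 7 days at 37 °C. ATP-Lite cell health normalised to controls; EC50 by four-parameter fit.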
EC50 [1] [µM],EC50 (hMPV A2 TN/94-49 [2]) [µM],EC50 (hMPV A2 TN/94-49 [3]) [µM],Structure (SMILES)
< 0.2,< 0.5,< 0.2,COc1cc(C(=O)NC[C@@](O)(c2ccccc2)c2cc3c(c(-c4ccc(F)c(Cl)c4Cl)n2)OC[C@]3(C)C(N)=O)cc2oc(C)nc12 [Example 277]
< 0.2,< 0.5,< 0.2,COc1cc(C(=O)NC[C@@](O)(c2ccccc2)c2cc3c(c(-c4ccc(F)c(Cl)c4Cl)n2)OC[C@]3(C)C(N)=O)cc2cn(C3(F)CC3)nc12 [Example 259]
< 0.2,< 0.5,< 0.2,C[C@]1(C(N)=O)COc2c1cc([C@@](O)(CNC(=O)c1cc(OC3CC3)c3nn(C(F)F)cc3c1)c1ccc(F)cc1)nc2-c1ccc2c(c1Cl)OC(F)(F)O2 [Example 265]
< 0.2,< 0.5,< 0.2,COc1cc(C(=O)NC[C@@](O)(c2ccccc2)c2cc3c(c(-c4cc(F)c(F)cc4F)n2)OC[C@]3(C)C(N)=O)cc2cn(C(F)F)nc12 [Example 172]
< 0.2,< 0.5,< 0.2,COc1cc(C(=O)NC[C@@](O)(c2ccccc2)c2cc3c(c(-c4ccc(F)c(Cl)c4Cl)n2)OC[C@]3(C)C(N)=O)cc2cc(C3CC3)nnc12 [Example 290]
< 0.2,< 0.5,< 0.2,COc1cc(C(=O)NC[C@@](O)(c2cccc(F)c2)c2cc3c(c(-c4cccc(Cl)c4Cl)n2)OC[C@]3(C)C(N)=O)cc2oc(C)nc12 [Example 293]
< 0.2,< 0.5,< 0.2,COc1cc(C(=O)NC[C@@](O)(c2ccc(F)cc2)c2cc3c(c(-c4ccc5c(c4Cl)OC(F)(F)O5)n2)OC[C@]3(C)C(N)=O)cc2cn(C(F)F)nc12 [Example 264]
< 0.2,< 0.5,< 0.2,C[C@]1(C(N)=O)COc2c1cc([C@@](O)(CNC(=O)c1ccc3nc(C4CC4)oc3c1)c1cccc(F)c1)nc2-c1ccc2c(c1Cl)OC(F)(F)O2 [Example 287]
< 0.2,< 0.5,< 0.2,COc1cc(C(=O)NC[C@@](O)(c2ccccc2)c2cc3c(c(-c4ccc(F)c(Cl)c4Cl)n2)OC[C@]3(C)C(N)=O)cc2cc(C)nnc12 [Example 289]
< 0.2,< 0.5,< 0.2,COc1cc(C(=O)NC[C@@](O)(c2cccc(F)c2)c2cc3c(c(-c4ccc(F)c(Cl)c4Cl)n2)OC[C@]3(C)C(N)=O)cc2cn(C3(F)CC3)nc12 [Example 269]
< 0.2,< 0.5,< 0.2,COc1cc(C(=O)NC[C@@](O)(c2ccccc2)c2cc3c(c(-c4cccc(Cl)c4Cl)n2)OC[C@]3(C)C(N)=O)cc2cn(C3CC3)nc12 [Example 260]
< 0.2,< 0.5,< 0.2,[2H]C([2H])([2H])c1nc2ccc(C(=O)NC[C@@](O)(c3cccc(F)c3)c3cc4c(c(-c5ccc6c(c5Cl)OC(F)(F)O6)n3)OC[C@]4(C)C(N)=O)cc2o1 [Example 282]
< 0.2,< 0.5,< 0.2,COc1cc(C(=O)NC[C@@](O)(c2ccccc2)c2cc3c(c(-c4cc(Cl)c(F)cc4F)n2)OC[C@]3(C)C(N)=O)cc2cc(Cl)cnc12 [Example 187]
< 0.2,< 0.5,< 0.2,COc1cc(C(=O)NC[C@](O)(c2cc3c(c(-c4cc(Cl)c(F)cc4F)n2)OC[C@]3(C)C(N)=O)c2nccs2)cc2cn(C3CC3)nc12 [Example 475]
< 0.2,< 0.5,< 0.2,COc1cc(C(=O)NC[C@@](O)(c2cccc(F)c2)c2cc3c(c(-c4cccc(Cl)c4Cl)n2)OC[C@]3(C)C(N)=O)cc2oc(C3CC3)nc12 [Example 292]
< 0.2,< 0.5,< 0.2,COc1cc(C(=O)NC[C@@](O)(c2ccc(F)cc2)c2cc3c(c(-c4ccc5c(c4Cl)OC(F)(F)O5)n2)OC[C@]3(C)C(N)=O)cc2cn(C3(F)CC3)nc12 [Example 263]
< 0.2,< 0.5,< 0.2,COc1cc(C(=O)NC[C@@](O)(c2ccccc2)c2cc3c(c(-c4ccc(F)c(Cl)c4Cl)n2)OC[C@]3(C)C(N)=O)cc2oc(C3CC3)nc12 [Example 278]
< 0.2,< 0.5,< 0.2,Cc1nc2c(OC3CC3)cc(C(=O)NC[C@@](O)(c3ccccc3)c3cc4c(c(-c5ccc(F)c(Cl)c5Cl)n3)OC[C@]4(C)C(N)=O)cc2o1 [Example 271]

# Second part, the molecule before the results:
Structure (SMILES),EC50 [1] [µM],EC50 (hMPV A2 TN/94-49 [2]) [µM],EC50 (hMPV A2 TN/94-49 [3]) [µM]
COc1cc(C(=O)NC[C@@](O)(c2ccccc2)c2cc3c(c(-c4cc(Cl)ccc4F)n2)OC[C@]3(C)C(N)=O)cc2cc(C3CC3)nn12 [Example 146],< 0.2,< 0.5,< 0.2
[2H]C([2H])([2H])NC(=O)[C@@]1(C)COc2c1cc([C@@](O)(CNC(=O)c1cc(OC)c3nn(C4CC4)cc3c1)c1ccccc1)nc2-c1cc(Cl)c(F)cc1F [Example 140],< 0.2,< 0.5,< 0.2
COc1cc(C(=O)NC[C@@](O)(c2ccccc2)c2cc3c(c(-c4cc(C(F)(F)F)ccc4F)n2)OC[C@]3(C)C(N)=O)cc2cn(C3CC3)nc12 [Example 147],< 0.2,< 0.5,< 0.2
COc1cc(C(=O)NC[C@@](O)(c2ccccc2)c2cc3c(c(-c4cc(F)c(F)cc4F)n2)OC[C@]3(C)C(N)=O)cc2cn(C3CC3)nc12 [Example 171],< 0.2,< 0.5,< 0.2
COc1cc(C(=O)NC[C@@](O)(c2ccc(C(F)(F)F)cc2)c2cc3c(c(-c4cc(Cl)c(F)cc4F)n2)OC[C@]3(C)C(N)=O)cc2cn(C3CC3)nc12 [Example 130],< 0.2,> 0.5,> 0.2
COc1cc(C(=O)NC[C@@](O)(c2ccccc2)c2cc3c(c(-c4cc(Cl)c(F)cc4F)n2)OC[C@]3(C)C(N)=O)cc2sc(N)nc12 [Example 157],< 0.2,< 0.5,< 0.2
C[C@]1(C(N)=O)COc2c1cc([C@@](O)(CNC(=O)c1ccc3nc(C4CC4)oc3c1)c1ccccc1)nc2-c1cc(Cl)c(F)cc1F [Example 88],< 0.2,< 0.5,< 0.2
C[C@]1(C(N)=O)COc2c1cc([C@@](O)(CNC(=O)c1cc(OC3CC3)c3nc(C4CC4)sc3c1)C1CC1)nc2-c1cc(Cl)c(F)cc1F [Example 3],< 0.2,< 0.5,< 0.2
C[C@]1(C(N)=O)COc2c1cc([C@@](O)(CNC(=O)c1cc(OC3CC3)c3nn(C4CC4)cc3c1)C1CC1)nc2-c1ccc(F)c(Cl)c1Cl [Example 23],< 0.2,< 0.5,< 0.2
C[C@]1(C(N)=O)COc2c1cc([C@@](O)(CNC(=O)c1cc(OC3CC3)n3nc(C4CC4)cc3c1)C1CC1)nc2-c1cc(Cl)c(F)cc1F [Example 4],< 0.2,< 0.5,< 0.2
COc1cc(C(=O)NC[C@@](O)(c2ccccc2)c2cc3c(c(-c4ccc5c(c4)OC(F)(F)O5)n2)OC[C@]3(C)C(N)=O)cc2cn(C3CC3)nc12 [Example 18],< 0.2,< 0.5,< 0.2
COc1cc(C(=O)NC[C@@](O)(c2ccccc2)c2cc3c(c(-c4cc(Cl)c(F)cc4F)n2)OC[C@]3(C)C(N)=O)cc2cc(C)nnc12 [Example 89],< 0.2,< 0.5,< 0.2
COc1cc(C(=O)NC[C@](O)(c2cc3c(c(-c4cc(F)c(F)cc4C)n2)OC[C@]3(C)C(N)=O)C2CC2)cc2cn(C3CC3)nc12 [Example 50],< 0.2,> 0.5,< 0.2
COc1cc(C(=O)NC[C@](O)(c2cc3c(c(-c4ccc(F)c(Cl)c4Cl)n2)OC[C@]3(C)C(N)=O)C(F)(F)F)cc2cn(C(F)F)nc12 [Example 66],< 0.2,< 0.5,< 0.2
COc1cc(C(=O)NC[C@@](O)(c2ccc(F)cc2)c2cc3c(c(-c4cc(Cl)c(F)cc4F)n2)OC[C@]3(C)C(N)=O)cc2cn(C3(F)CC3)nc12 [Example 14],< 0.2,< 0.5,< 0.2

# Source: patent US12358921B2, “Antiviral heterocyclic compounds” (priority 2022, dated 2025)
